Where two headings read alike, the source gives them in different places.
What was measured:
[1] = system: Human umbilical vein endothelial cells (HUVEC); test: HUVEC proliferation assay (tritiated thymidine uptake); type: cell-based; details: for inhibition of HUVEC proliferation in vitro, dose dependent (in words): dose dependent manner
Experimental: Human umbilical vein endothelial cells (HUVEC) were seeded in 96-well flat bottomed tissue culture plates at a density of 2.5-5×10^4 cells/well and treated with various dilutions of agents. Cells were cultured in RPMI medium containing 20% FCS, Penicillin/Streptomycin in a 5% CO2 atmosphere at 37° C. After 24 to 48 hours of incubation, cells were pulsed with 1 μCi of tritiated thymidine for 6 hours. The pulsed cells were trypsinised to detach from the wells and then harvested in a TOMTEC Cell Harvester onto glass fibre filters, which were dried and immersed in scintillation fluid and counted in a Wallac Microbeta scintillation counter. The results were reported as mean cpm±SD.

[2] = system: chicken chorioallantoic membrane (CAM); test: Chicken chorioallantoic membrane (CAM) assay for angiogenesis; type: in vivo; details: for Vein length (%) / Artery length (%) / Total vessel length (%) / Vein Diameter (%): % of control, Mean ± SEM
Experimental: Fertilised chicken eggs (HiChick Breeding Co, Kapunda, South Australia) were incubated for three days at 38° C. On Day 3 the embryos were cracked out of the egg and into a cup made of plastic piping, with plastic film stretched over the top to form a hammock for the egg to be suspended in. Two ml of DMEM containing penicillin and streptomycin was added to each cup prior to the egg being added. A petri dish on the top maintained sterility. Incubation continued in a humidified 37° C. incubator.
On Day 4 the chorioallantoic membrane (CAM) begins to grow, and pictures were taken of each embryo at ×5 to measure the CAM area using image analysis software (Video Pro 32, Leading Edge Pty Ltd, South Australia).
Embryos were then grouped according to their CAM area, with a control embryo in each for comparison. Grouping is critical as in these early developmental stages changes in the CAM growth are dramatic. Relatively small differences in size on Day 4 translate to large differences in the CAM on Day 5. Treatment was applied in methylcellulose discs, which were dried under vacuum overnight. The methylcellulose discs were applied to the top of the CAM, and at the beginning of treatment were at least three to four-fold bigger than the CAM area, meaning treatment covered the entire CAM surface.
On Day 5 skim milk with contrast medium was injected into the CAM. Pictures were then taken at various levels of magnification up to ×63. Quantitative measurements were made from ×5 pictures. CAM area, and vein and artery lengths were measured using image analysis (Video Pro 32, Leading Edge Pty Ltd, South Australia). Relative vessel lengths were then calculated as the total length/CAM area. Statistical analysis was made using SigmaStat and OneWay ANOVA with p<0.05 as the level of significance.

[3] = 50 μM, tritiated thymidine uptake
[4] = 100 μM, tritiated thymidine uptake
[5] = 200 μM, tritiated thymidine uptake
[6] = 400 μM, tritiated thymidine uptake
[7] = 800 μM, tritiated thymidine uptake

`CCC(C)CCCCCCCCCCC(=O)O` (stereo not drawn) [12-MTA, 12-methyltetradecanoic acid] was tested, and the “% Inhibition of HUVEC proliferation” value ([1]; 50 μM, percentage of control cells with no added agent (Table 1)) was 13.3%, the Average [1, 3] was 18781.3 cpm and the “Sample 1” value [1, 3] was 19272 cpm. For the same compound, the “Sample 2” value [1, 3] was 19942 cpm, the “Sample 3” value [1, 3] was 17130 cpm and the Average [1, 4] was 17593.0 cpm. The “Sample 1” value [1, 4] was 20367 cpm, the “Sample 2” value [1, 4] was 16963 cpm and the “Sample 3” value [1, 4] was 15449 cpm. The Average [1, 5] was 15707.7 cpm, the “Sample 1” value [1, 5] was 18491 cpm and the “Sample 2” value [1, 5] was 15435 cpm. For the same compound, the “Sample 3” value [1, 5] was 13197 cpm, the “HUVEC proliferation (in words)” value ([1]; 400 μM concentration, tritiated thymidine uptake) was “inhibited” and the Average [1, 6] was 12104.7 cpm. The “Sample 1” value [1, 6] was 12558 cpm, the “Sample 2” value [1, 6] was 13837 cpm and the “Sample 3” value [1, 6] was 9919 cpm. The “microscopic examination of the cells” value ([1]; 800 μM) was “appearance of apoptotic cells”, the Average [1, 7] was 9.0 cpm and the “Sample 1” value [1, 7] was 11 cpm. The “Sample 2” value [1, 7] was 7 cpm, the “Sample 3” value [1, 7] was 9 cpm and the inhibition at 50 µM ([1]; Homo sapiens, HUVEC, 50 μM, percentage of control cells with no added agent (Table 1)) was 13%. The inhibition at 100 µM ([1]; Homo sapiens, HUVEC, 100 μM, percentage of control cells with no added agent (Table 1)) was 18.7%, the inhibition at 200 µM ([1]; Homo sapiens, HUVEC, 200 μM, percentage of control cells with no added agent (Table 1)) was 27.5% and the inhibition at 400 µM ([1]; Homo sapiens, HUVEC, 400 μM concentration, percentage of control cells with no added agent (Table 3), read-out: Percentage inhibition of HUVEC proliferation) was 32%. For the same compound, the inhibition at 400 µM ([1]; Homo sapiens, HUVEC, 400 μM, percentage of control cells with no added agent (Table 1), read-out: % Inhibition of HUVEC proliferation) was 44.1%, the inhibition at 800 µM ([1]; Homo sapiens, HUVEC, 800 μM, percentage of control cells with no added agent (Table 1)) was 99% and the inhibition at 100 µM ([1]; Homo sapiens, HUVEC, 24 h, 100 μM 12-MTA, 24 hours (Table 2)) was 24.8%. The inhibition at 200 µM ([1]; Homo sapiens, HUVEC, 24 h, 200 μM 12-MTA, 24 hours (Table 2)) was 30.2%, the cell viability ([1]; concentrations between 50 to 400 μM) was “good viability” and the “inhibition of HUVEC proliferation in vitro, dose dependent (in words)” value [1] was “inhibited in a dose response manner”. For the same compound, the “inhibition of HUVEC proliferation in vitro, dose dependent (in words)” value ([1]; listed as 12-methyl tetradecanoic acid) was “inhibit the proliferation”, the “Vein length (%)” value ([2]; 25 nmol on methylcellulose disc) was 82.1 ± 22.9% and the “Artery length (%)” value ([2]; 25 nmol) was 81.8 ± 11.6%. For the same compound, the “Total vessel length (%)” value ([2]; 25 nmol) was 79.8 ± 15.0%, the “Vein Diameter (%)” value ([2]; 25 nmol) was 89.3 ± 25.2% and the “Vein length (%)” value ([2]; 50 nmol on methylcellulose disc) was 74.4 ± 20.8%. For the same compound, the “Artery length (%)” value ([2]; 50 nmol) was 78.8 ± 12.2%, the “Total vessel length (%)” value ([2]; 50 nmol) was 74.9 ± 14.7% and the “Vein Diameter (%)” value ([2]; 50 nmol) was 59.1 ± 11.2%. For the same compound, the “Vein length (%)” value ([2]; 100 nmol on methylcellulose disc) was 46.0 ± 8.7^1%, the “Artery length (%)” value ([2]; 100 nmol) was 63.8 ± 4.0^1% and the “Total vessel length (%)” value ([2]; 100 nmol) was 54.9 ± 4.3^1%. The “Vein Diameter (%)” value ([2]; 100 nmol) was 45.9 ± 10.0^1%, the “number of branching capillaries sprouting from the main vessels” value ([2]; 500 nmol) was “reduction” and the vessel area ([2]; 500 nmol) was “diminished”. The “cytotoxicity to the embryo” value ([2]; chicken embryo, CAM assay) was “not cytotoxic”, the “inhibition of angiogenesis in the CAM assay, dose dependent (in words)” value ([2]; dose dependent manner) was “inhibit angiogenesis” and the “effect of the lowest dose on vein length, artery length, total vessel length and vein diameter (in words)” value ([2]; lowest dose (25 nmol)) was “inhibited”.
